How the values were obtained:
[1] = system: Sendai virus; assay: Replication of Sendai virus in 37RC cells, virus yield by haemagglutinin titration; type: cell-based; conditions: Respirovirus muris; 50% inhibitory dose/concentration at 24 hours, Sendai virus in 37RC cells; read-out: ID50/μM
Procedure: Monkey kidney 37RC cells were grown at 37° C. in RPMI medium supplemented with 5% foetal bovine serum (FBS), L-glutarine (2 mM) and antibiotics. Sendai virus was grown in the allantoic cavity of 10-day-old embryonated eggs. Viral titre was expressed in haemagglutinating units (HAU) per ml; haemagglutinin titration was done according to standard procedures, as described in C. Amici et al. (J. Virol. 68: 6890–6899, 1994). […] Confluent 37RC monolayers were infected with Sendai Virus (5 HAU/ml) for 1 h at 37° C. After 1 hour incubation, viral inoculum was removed and cells were treated with the test compounds at different concentrations. Virus yields were determined 24 h post infection by haemagglutinin titration. Mock-infected cells were treated identically and processed for cytotoxicity assay (Neutral Red assay) at the same time (see below). The results were expressed as HAU/ml (each point represents the mean of duplicate samples).

[2] = system: HSF; assay: HSF activation, luciferase reporter controlled by the human hsp70 promoter in HeLa cell clone 13B; type: cell-based; conditions: Homo sapiens; concentration at which the compound doubled HSF activity; HeLa clone 13B, 8 h treatment; read-out: HSF AC200/μM
Procedure: (§1) HeLa cell clone 13B, stably transfected with a luciferase reporter plasmid controlled by the human hsp70 promoter, and HeLa κB-transformed cells, stably transfected with a luciferase reporter plasmid controlled by a synthetic NF-κB-STM construct, were maintained in DMEM medium supplemented with 10% FBS, L-glutamine (2 mM) and G418 (250 μg/ml) at 37° C. in a 5% CO2 humidified atmosphere.
(§2) Cells were seeded at a density of 4×10^4 cells/well in 96-well plates. After 18–20 h, the medium was removed and cells were treated for 8 h with the test compounds (100 μl) at the appropriate dilutions in serum-free medium. For the NF-κB-dependent reporter gene assay, cells were stimulated with TPA (25 ng/ml) 2 h after exposure to the compounds.
(§3) After incubation, the medium was removed and cells were lysed in 10 μl of lysis buffer. The luciferase activity was determined by adding 100 μl of substrate and measuring the release of light using a Victor 1420 microplate reader (Wallac, Finland).
(§4) The AC200/μM for HSF is the concentration at which the tested compound doubled the HSF activity in this assay. The IC50/μM for NF-κB is the concentration at which the tested compound halved the NF-κB activity in this assay. […] The LC50/μM is the concentration at which the tested compound killed half the cells in each assay. […] (n.d. means not done)

[3] = system: HeLa cells; assay: in vitro; type: cell-based; conditions: human, 8 h
Procedure: HeLa cells were plated in 96-well microtiter plates in 100 μl culture medium (4×10^4/well). After 20 hours, the cells were exposed to the test compounds at different dilutions and incubated for the next 8 h at 37° C. in a 5% CO2 humidified atmosphere. After 6 h incubation, the Alamar Blue was added in an amount equal to 10% of the culture volume (10 μl). Two hours after the addition of the Alamar Blue, the fluorescence was measured using a Victor 1420 microplate reader.

[4] = in vitro; type: cell-based; conditions: monkey, 50% lethal dose/concentration, neutral red assay, 37RC cells, read-out: LC50/μM
Procedure: Cell viability was determined using the Neutral Red assay.

[5] = system: NF-κB; assay: NF-κB-dependent luciferase reporter gene assay in HeLa κB-transformed cells stimulated with TPA; type: cell-based, human; conditions: Homo sapiens; concentration that halved NF-κB activity; HeLa reporter cells, TPA 25 ng/ml, 8 h treatment
Procedure: as §1, §2, §3
The fragment Kpn I-BamH I from the pGL3 basic vector containing the luciferase gene (PROMEGA) was inserted in the pcDNA3 vector (INVITROGEN) digested with Bgl II-KpnI. (This digestion removes the CMV-promoter from pcDNA3.) The resulting new vector was digested with Kpn I-Hind III and a promoter containing a ‘5×NF-κB binding sites-TATA box’ sequence was inserted upstream of the luciferase gene. This vector has been named STM.
To obtain stable HeLa cell lines expressing the luciferase gene under the control of NF-κB, HeLa cells were transfected (using lipofectamine plus GIBCO) with the STM-Pvu I linearized vector, and selected for 20 days with G418 (800 μg/ml). After selection, the resistant HeLa cell pool was controlled (in quadruplicate samples) for luciferase activity after stimulation with TNFα, IL-1 and TPA.
as §4

[6] = system: Monkey kidney 37RC cells; type: cell-based; conditions: concentration 100% toxic to uninfected 37RC cells, visually by microscopy

SMILES	IC50 [1] [µM]	EC (2-fold HSF activity) [2] [µM]	CC50 [3] [µM]	CC50 at 24 h [4] [µM]	IC50 [5] [µM]	TD100/μM [6] [µM]
CC(C)/C=C1/C(=O)C=CC1NC(=O)OC(C)(C)C (centres unmarked) [CTC-121, (5-iso-Butylidene-4-oxocyclopent-2-enyl)-carbamic acid tert-butyl ester]	1	2.8	> 800	4	4.7	50
CCCCC1C=CC(=O)/C1=C/CC(C)C (centres unmarked) [CTC-122]	0.3	13	227		12	50
CC(C)(C)OC(=O)NC1C=CC(=O)C1 (centres unmarked) [CTC-132, (4-Oxocyclopent-2-enyl)-carbamic acid tert-butyl ester]	20	51	> 800		52	100
CCCCC1C=CC(=O)/C1=C/C(C)C (centres unmarked) [CTC-145]	0.3	13	506		38	10
CC1C=CC(=O)/C1=C/c1ccccc1 (centres unmarked) [CTC-150, 4-Methyl-5-[1-phenyl-meth-(E)-ylidene]-cyclopent-2-enone]	0.9	3	314		7	50
CC(C)/C=C1/C(=O)C=CC1C (centres unmarked) [CTC-154]		13	> 800		14	
CCCCCC/C=C1/C(=O)C=CC1C (centres unmarked) [CTC-162]		< 6.2	234		< 6.2	
CCCCC/C=C1/C(=O)C=CC1C (centres unmarked) [CTC-164]		> 100	> 800		40	
O=C1C=CC(NC(=O)c2ccccc2)C1 (centres unmarked) [CTC-171, N-(4-Oxocyclopent-2-enyl)-benzamide]	20	51	> 800	59	38	100
CCCCC1C=CC(=O)/C1=C/C1CC1 (centres unmarked) [CTC-177]		8	239		14	
CC(C)/C=C1/C(=O)C=C[C@H]1NC(=O)OC(C)(C)C [CTC-195, (2R)-(5-iso-Butylidene-4-oxocyclopent-2-enyl)-carbamic acid tert-butyl ester]	0.4	5	> 800	4	6.6	10
CC(C)/C=C1/C(=O)C=C[C@@H]1NC(=O)OC(C)(C)C [CTC-199, (2S)-(5-iso-Butylidene-4-oxocyclopent-2-enyl)-carbamic acid tert-butyl ester]	1	1.8	> 800	4	5	50

Source: US7183440B2, “Pharmaceutically useful compounds” (priority 2005, dated 2007)
